PubChem BioAssay AID1963982 (Molecular Pharmacology Branch, DTP, NCI, 2024)
“And” between values parts separate entries of the source, which are not always exact repeats. Equal values may be shown once.

System: 313798-341-R-J2-PDC spheroids, viability
Assay: Anticancer human tumor 313798-341-R-J2-PDC patient-derived cervical squamous cell carcinoma cell line growth inhibition [PI3K]
Conditions: spheroids with HUVEC and MSC; for viability, T/C: stronger effect = lower value
From the text: Combinatorial screen of targeted agents with the PI3K inhibitors inavolisib, alpelisib, duvelisib, and copanlisib in multi-cell type tumor spheroids
A high-throughput screen of multi-cell type tumor spheroids was designed to identify active combinations of targeted small molecules and PI3K pathway inhibitors. Complex spheroids include a stromal component modeled by human endothelial cells (HUVEC) and fibroblasts modeled by human mesenchymal stem cells (MSCs). The concentration ranges selected for each drug and investigational agent were based upon clinically achievable concentrations if the clinical Cmax of the agent was known.
Compounds. The drugs and investigational agents: inavolisib (NSC800729), alpelisib (NSC765974), duvelisib (NSC772469), copanlisib (NSC816437), ipatasertib (NSC767898), afuresertib (NSC778305), talazoparib (NSC767125), sapanisertib (NSC764658), selumetinib (NSC741078), tovorafenib (DAY101, NSC766906), vemurafenib (NSC761431), ravoxertinib (NSC781343), sotorasib (NSC818433), MRTX1133 (NSC 836407), abemaciclib (NSC 768073), palbociclib (NSC758247), venetoclax (NSC 766270), SY5609 (NSC837396), enzalutamide (NSC755605), and darolutamide (NSC825331), were obtained from the National Cancer Institute (NCI) Developmental Therapeutics Program Chemical Repository. The FDA-approved anticancer drug set is available from the NCI Developmental Therapeutics Program. […] The stock solutions were prepared in dimethyl sulfoxide (DMSO, Sigma-Aldrich, St. Louis, MO, cat. D2650) at 800-fold the tested concentration and stored at -70 degrees C prior to their use. All drugs and investigational agents were tested over a range starting from a high concentration at or near the clinical Cmax and decreasing in half-log increments. If the clinical Cmax for an agent had not been determined, the highest concentration tested was 10 microM.
Cell Culture. All cells were maintained in an incubator at 37 degrees C and 5% CO2 with 95% humidity. The PDC lines were cultured according to standard operating procedures established by the NCI PDMR (https://pdmr.cancer.gov/sops/default.htm). All PDCs were thawed and cultured in Matrigel-coated flasks prepared with a working solution of 1X Ham's F-12 nutrient mix, without supplementation (Invitrogen, Waltham, MA, cat. 11765054), 100 U/mL penicillin-streptomycin (Invitrogen, cat. 15140122), and 2.5% Matrigel (Corning Inc., Corning, NY, cat. 354248) for the first three passages. The 354836-022-R-J1-PDC, 475296-252-R-J1-PDC, and 997726-040-R-J2-PDC lines were cultured in 6A media, which includes advanced DMEM/F-12 (Thermo Fisher Scientific, cat. 12634028), 10 mM HEPES (Thermo Fisher Scientific, cat. 15630080), 1X GlutaMAX supplement (Thermo Fisher Scientific, cat. 35050061), 0.1 mg/mL primocin (InvivoGen, San Diego, CA, cat. ant-pm-2), 10% defined fetal bovine serum, heat inactivated (HyClone Laboratories Inc., Logan, UT, cat. SH30070.03HI), 50% L-WRN conditioned media (ATCC, cat. CRL-3276), 1.25 mM N-Acetyl-L-cysteine (Sigma-Aldrich, cat. A9165), 10 mM nicotinamide (Sigma-Aldrich, cat. N0636), 1X B-27 supplement (Thermo Fisher Scientific, cat. 17504044), 1X N-2 supplement (Thermo Fisher Scientific, cat. 17502048), and 10 microM Y-27632 dihydrochloride (Tocris Bioscience, Bristol, United Kingdom, cat. 1254). The 624824-186-R-J2-PDC line was cultured in 6C/Colon 1B media, which includes all 6A media components plus 50 ng/mL human EGF recombinant protein (Thermo Fisher Scientific, cat. PHG0311). […]

[1] = compound alone, run of 04/24/2023
[2] = compound alone, run of 04/25/2023
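Note: spheroids exposed to compounds for seven days.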
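Throughout, for viability, T/C: 100% = DMSO vehicle control viability.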

C=CC(=O)N1CCN(c2nc(=O)n(-c3c(C)ccnc3C(C)C)c3nc(-c4c(O)cccc4F)c(F)cc23)C(C)C1 (stereo unspecified)
viability, T/C (compound 0.0316 µM): 100% [middle of 4 runs]
viability, T/C (compound 0.1 µM): 95% [middle of 4 runs]
viability, T/C (compound 0.316 µM): 95.7% [middle of 4 runs]
viability, T/C (compound 1 µM): 97.1% [middle of 4 runs]
viability, T/C (compound 3.16 µM): 105% [middle of 4 runs]
viability, T/C (compound 10 µM): 96.5% (2×) and 104% and 105%
IC50 (curve of compound): > 10 µM

CC(=O)c1c(C)c2cnc(Nc3ccc(N4CCNCC4)cn3)nc2n(C2CCCC2)c1=O
viability, T/C (compound 0.000316 µM): 105% (2×) and 108%
viability, T/C (compound 0.001 µM): 105% (2×) and 110%
viability, T/C (compound 0.00316 µM): 109% and 99.2% and 92.1%
viability, T/C (compound 0.01 µM): 101% and 103% and 118%
viability, T/C (compound 0.0316 µM): 101% (2×) and 97.3%
viability, T/C (compound 0.1 µM): 94.9% and 101% and 110%
IC50 (curve of compound): > 0.1 µM

CC(C)NCC(C(=O)N1CCN(c2ncnc3c2C(C)CC3O)CC1)c1ccc(Cl)cc1 (stereo unspecified)
viability, T/C (compound 0.0316 µM): 97.6% [middle of 4 runs]
viability, T/C (compound 0.1 µM): 96.4% [middle of 4 runs]
viability, T/C (compound 0.316 µM): 92.8% [middle of 4 runs]
viability, T/C (compound 1 µM): 65.8% [middle of 4 runs]
viability, T/C (compound 3.16 µM): 41.6% [middle of 4 runs]
viability, T/C (compound 10 µM): 31.5% [middle of 4 runs]
IC50 (curve of compound): 2 µM [middle of 4 runs]

CC(C)n1nc(-c2ccc3oc(N)nc3c2)c2c(N)ncnc21
viability, T/C (compound 0.000316 µM): 99% [middle of 4 runs]
viability, T/C (compound 0.001 µM): 98.2% [middle of 4 runs]
viability, T/C (compound 0.00316 µM): 101% [middle of 4 runs]
viability, T/C (compound 0.01 µM): 86.7% [middle of 4 runs]
viability, T/C (compound 0.0316 µM): 77.7% [middle of 4 runs]
viability, T/C (compound 0.1 µM): 38.6% (2×) and 36.7% and 38.7%
IC50 (curve of compound): 71.3 nM [middle of 4 runs]

CC(Cn1ccc(-c2ccc(C#N)c(Cl)c2)n1)NC(=O)c1cc(C(C)O)[nH]n1 (stereo unspecified)
viability, T/C (compound 0.0316 µM): 98.1% and 107% and 99.7%
viability, T/C (compound 0.1 µM): 111% and 96.9% and 101%
viability, T/C (compound 0.316 µM): 101% and 107% and 113%
viability, T/C (compound 1 µM): 113% and 97.7% and 93.9%
viability, T/C (compound 3.16 µM): 99% and 105% and 104%
viability, T/C (compound 10 µM): 99.1% and 101% and 93.9%
IC50 (curve of compound): > 10 µM

CC(Nc1ccc2c(c1)OCCn1cc(N3C(=O)OCC3C(F)F)nc1-2)C(N)=O (stereo unspecified)
viability, T/C (compound 0.00316 µM): 96.5% [middle of 8 runs]
viability, T/C (compound 0.01 µM): 103% [middle of 8 runs]
viability, T/C (compound 0.0316 µM): 103% [middle of 8 runs]
viability, T/C (compound 0.316 µM): 76.6% [middle of 8 runs]
viability, T/C (compound 1 µM): 53.9% [middle of 8 runs]
IC50 [1]: 0.523 µM and 0.908 µM and > 1 µM

CC(Nc1ncnc2nc[nH]c12)c1cc2cccc(Cl)c2c(=O)n1-c1ccccc1 (stereo unspecified)
viability, T/C (compound 0.0316 µM): 100% [middle of 8 runs]
viability, T/C (compound 0.1 µM): 95.1% [middle of 8 runs]
viability, T/C (compound 0.316 µM): 99.5% [middle of 8 runs]
viability, T/C (compound 1 µM): 97.6% [middle of 8 runs]
viability, T/C (compound 3.16 µM): 94.7% [middle of 8 runs]
viability, T/C (compound 10 µM): 89.6% [middle of 8 runs]
IC50 [2]: > 10 µM

CC1(C)CCC(CN2CCN(c3ccc(C(=O)NS(=O)(=O)c4ccc(NCC5CCOCC5)c([N+](=O)[O-])c4)c(Oc4cnc5[nH]ccc5c4)c3)CC2)=C(c2ccc(Cl)cc2)C1
viability, T/C (compound 0.0316 µM): 101% [middle of 4 runs]
viability, T/C (compound 0.1 µM): 97.8% [middle of 4 runs]
viability, T/C (compound 0.316 µM): 101% [middle of 4 runs]
viability, T/C (compound 1 µM): 94.4% [middle of 4 runs]
viability, T/C (compound 3.16 µM): 78.9% [middle of 4 runs]

CC1(C)CCC(Nc2ncc(C(F)(F)F)c(-c3c[nH]c4c(P(C)(C)=O)c(C#N)ccc34)n2)CN1 (stereo unspecified)
viability, T/C (compound 0.0316 µM): 56.6% [middle of 4 runs]
viability, T/C (compound 0.1 µM): 46.7% [middle of 4 runs]
viability, T/C (compound 0.316 µM): 50.4% [middle of 4 runs]
viability, T/C (compound 1 µM): 53.8% [middle of 4 runs]
viability, T/C (compound 3.16 µM): 58.9% [middle of 4 runs]

CCCS(=O)(=O)Nc1ccc(F)c(C(=O)c2c[nH]c3ncc(-c4ccc(Cl)cc4)cc23)c1F
viability, T/C (compound 0.0316 µM): 98.2% [middle of 4 runs]
viability, T/C (compound 0.1 µM): 102% [middle of 4 runs]
viability, T/C (compound 0.316 µM): 101% [middle of 4 runs]
viability, T/C (compound 1 µM): 100% [middle of 4 runs]
viability, T/C (compound 3.16 µM): 107% (2×) and 99.1% and 108%
viability, T/C (compound 10 µM): 18.7% [middle of 4 runs]
IC50 (curve of compound): 6.37 µM [middle of 4 runs]

CCN1CCN(Cc2ccc(Nc3ncc(F)c(-c4cc(F)c5nc(C)n(C(C)C)c5c4)n3)nc2)CC1
viability, T/C (compound 0.01 µM): 99.5% [middle of 4 runs]
viability, T/C (compound 0.0316 µM): 103% [middle of 4 runs]
viability, T/C (compound 0.1 µM): 102% [middle of 4 runs]
viability, T/C (compound 0.316 µM): 120% [middle of 4 runs]
viability, T/C (compound 1 µM): 122% [middle of 4 runs]
IC50 (curve of compound): > 1 µM

CNC(=O)c1ccc(N2C(=S)N(c3ccc(C#N)c(C(F)(F)F)c3)C(=O)C2(C)C)cc1F
viability, T/C (compound 0.0316 µM): 104% and 102% (2×) and 89%
viability, T/C (compound 0.1 µM): 99.5% [middle of 4 runs]
viability, T/C (compound 0.316 µM): 104% [middle of 4 runs]
viability, T/C (compound 1 µM): 102% [middle of 4 runs]
viability, T/C (compound 3.16 µM): 105% [middle of 4 runs]
viability, T/C (compound 10 µM): 102% [middle of 4 runs]
IC50 (curve of compound): > 10 µM

COc1c(OCCCN2CCOCC2)ccc2c3n(c(=NC(=O)c4cnc(N)nc4)nc12)CCN3
viability, T/C (compound 0.00316 µM): 101% [middle of 7 runs]
viability, T/C (compound 0.01 µM): 102% [middle of 7 runs]
viability, T/C (compound 0.0316 µM): 84.5% [middle of 7 runs]
viability, T/C (compound 0.1 µM): 42.1% [middle of 7 runs]
viability, T/C (compound 0.316 µM): 14.9% [middle of 7 runs]
viability, T/C (compound 1 µM): 11.9% [middle of 7 runs]
IC50 [2]: 80.2 nM [middle of 7 runs]

C[C@@H](NC(=O)c1ncnc(N)c1Cl)c1ncc(C(=O)Nc2cc(C(F)(F)F)c(Cl)cn2)s1
viability, T/C (compound 0.0316 µM): 94.6% [middle of 4 runs]
viability, T/C (compound 0.1 µM): 102% [middle of 4 runs]
viability, T/C (compound 0.316 µM): 99.1% [middle of 4 runs]
viability, T/C (compound 1 µM): 97.8% [middle of 4 runs]
viability, T/C (compound 3.16 µM): 120% [middle of 4 runs]
IC50 (curve of compound): > 10 µM and 5.95 µM

Cc1nc(NC(=O)N2CCCC2C(N)=O)sc1-c1ccnc(C(C)(C)C(F)(F)F)c1 (stereo unspecified)
viability, T/C (compound 0.0316 µM): 99.9% [middle of 8 runs]
viability, T/C (compound 0.1 µM): 97.5% [middle of 8 runs]
viability, T/C (compound 0.316 µM): 102% [middle of 8 runs]
viability, T/C (compound 1 µM): 90.6% [middle of 8 runs]
viability, T/C (compound 3.16 µM): 59.9% [middle of 8 runs]
viability, T/C (compound 10 µM): 36.2% [middle of 8 runs]
IC50 [1]: 4.93 µM [middle of 8 runs]

Cn1cnc2c(F)c(Nc3ccc(Br)cc3Cl)c(C(=O)NOCCO)cc21
viability, T/C (compound 0.00949 µM): 97.9% [middle of 4 runs]
viability, T/C (compound 0.03 µM): 92% [middle of 4 runs]
viability, T/C (compound 0.0949 µM): 89.5% [middle of 4 runs]
viability, T/C (compound 0.3 µM): 93.5% [middle of 4 runs]
IC50 (curve of compound): 1.38 µM and > 3 µM

Cn1nccc1Nc1nccc(-c2ccn(C(CO)c3ccc(Cl)c(F)c3)c(=O)c2)n1 (stereo unspecified)
viability, T/C (compound 0.0316 µM): 98.7% and 101% (2×) and 96.5%
viability, T/C (compound 0.1 µM): 95.3% [middle of 4 runs]
viability, T/C (compound 0.316 µM): 98.6% [middle of 4 runs]
viability, T/C (compound 1 µM): 100% [middle of 4 runs]
viability, T/C (compound 3.16 µM): 116% [middle of 4 runs]
viability, T/C (compound 10 µM): 96.9% and 104% (2×) and 105%
IC50 (curve of compound): > 10 µM

Cn1ncnc1[C@H]1c2n[nH]c(=O)c3cc(F)cc(c23)N[C@@H]1c1ccc(F)cc1
viability, T/C (compound 0.001 µM): 94.9% [middle of 4 runs]
viability, T/C (compound 0.00316 µM): 94.7% [middle of 4 runs]
viability, T/C (compound 0.01 µM): 104% (2×) and 88.8% and 114%
viability, T/C (compound 0.0316 µM): 95.9% [middle of 4 runs]
viability, T/C (compound 0.1 µM): 89% [middle of 4 runs]
IC50 (curve of compound): > 0.1 µM
